Experimental data: the supplement of paper PMC11821682

Legend:
[1] = tested on: HL-60; assay: Cell Health Index (toxicity pseudo-probability over dose series) (index 0-1); higher = more cytotoxic / cell stress;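 also: HL-60 cells exposed 4 h at 37 °C to ten threefold dilutions spanning 5 nM to 100 µM, multiparametric flow cytometry features scored by machine-learning classification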
[2] = tested on: Danio rerio embryo; assay: BMC10 any morphological effect or mortality at 120 hpf; higher = less toxic

Row | Structure (SMILES) | Cell Health Index [1] | BMC10 any morphological effect or mortality [2]
1 | Cc1nc(N(C)C(=O)Cc2ccc(-c3ccccn3)cc2)sc1S(N)(=O)=O [Pritelivir] | 0.209 | > 100 µM
2 | CCCN(CCC)S(=O)(=O)c1ccc(C(=O)O)cc1 [Probenecid] | 0.196 | > 100 µM
3 | O=CC1OC(=O)c2cc(O)c(O)c(O)c2-c2c(cc(O)c(O)c2O)C(=O)OC1C1OC(=O)c2cc(O)c(O)c(O)c2-c2c(O)c(O)c3oc(=O)c4c(c(O)c(O)c5oc(=O)c2c3c54)-c2c(cc(O)c(O)c2O)C(=O)OCC1O (configuration not stated) [Punicalagin] | 0.837 | > 100 µM
4 | CC(C)[C@H](NC(=O)c1ccc2ccccc2n1)C(=O)N[C@@H](CC(=O)O)C(=O)COc1c(F)cccc1F [Q-VD-OPH] | 0.221 | > 100 µM
5 | O=c1c(O[C@@H]2O[C@H](CO)[C@H](O)[C@H](O)[C@H]2O)c(-c2ccc(O)c(O)c2)oc2cc(O)cc(O)c12 [Quercetin 3-D-galactoside] | 0.218 | > 100 µM
6 | C=C[C@H]1C[N@@]2CC[C@H]1C[C@H]2[C@H](O)c1ccnc2ccc(OC)cc12 [Quinine] | 0.249 | > 100 µM
7 | Cc1nnc(C(=O)NC(C)(C)c2nc(C(=O)NCc3ccc(F)cc3)c([O-])c(=O)n2C)o1.[K+] [Raltegravir] | 0.218 | > 100 µM
8 | CCC(CC)COC(=O)[C@H](C)N[P@](=O)(OC[C@H]1O[C@@](C#N)(c2ccc3c(N)ncnn23)[C@H](O)[C@@H]1O)Oc1ccccc1 [Remdesivir] | 0.275 | > 100 µM
9 | CCOCc1nc2c(N)nc3ccccc3c2n1CC(C)(C)O [Resiquimod] | 0.38 | > 100 µM
10 | Oc1ccc(/C=C\c2cc(O)cc(O)c2)cc1 [Resveratrol] | 0.416 | > 100 µM
11 | Cc1cc(/C=C/C#N)cc(C)c1Nc1ccnc(Nc2ccc(C#N)cc2)n1 [Rilpivirine] | 0.639 | > 100 µM
12 | CC(N)C12C[C@H]3C[C@@H](C1)C[C@@H](C2)C3.Cl (some centres not stated) [Rimantadine] | 0.137 | > 100 µM
13 | O=P([O-])(O)C(O)(Cc1cccnc1)P(=O)(O)O.[Na+] [Risedronic acid] | 0.203 | > 100 µM
14 | CC(C)c1nc(CN(C)C(=O)N[C@H](C(=O)N[C@@H](Cc2ccccc2)C[C@H](O)[C@H](Cc2ccccc2)NC(=O)OCc2cncs2)C(C)C)cs1 [Ritonavir] | 0.532 | > 100 µM
15 | Nc1ccc(-c2nc3ccc(-c4nc5cc(N)ccc5[nH]4)cc3[nH]2)cc1 [Ro 90-7501] | 0.512 | > 100 µM
16 | COc1ccc(C2CNC(=O)C2)cc1OC1CCCC1 (configuration not stated) [Rolipram] | 0.152 | > 100 µM
17 | C[C@@H]1O[C@@H](OC[C@H]2O[C@@H](Oc3c(-c4ccc(O)c(O)c4)oc4cc(O)cc(O)c4c3=O)[C@H](O)[C@@H](O)[C@@H]2O)[C@H](O)[C@H](O)[C@H]1O.O.O.O [Rutin] | 0.252 | > 100 µM
18 | Cc1ccc(S(=O)(=O)OCC(=O)Nc2ccc(C(=O)O)c(O)c2)cc1 [S3I-201] | 0.259 | > 100 µM

Row | Structure (SMILES) | Cell Health Index [1] | BMC10 any morphological effect or mortality [2]
19 | CC(=O)SC[C@H](NC(=O)CC[C@H](N)C(=O)O)C(=O)NCC(=O)O [S-acetyl-L-Glutathione] | 0.168 | > 100 µM
20 | O=C(CCCCCCC(=O)Nc1ccccc1)NO [SAHA] | 0.239 | > 100 µM
21 | O=C(/C=C/c1ccccc1)NC(NC(=S)Nc1cccc2cccnc12)C(Cl)(Cl)Cl (configuration not stated) [Salubrinal] | 0.377 | > 100 µM
22 | O=C1/C(=C/c2ccc(O)c(O)c2)COc2cc(O)ccc21 [Sappanone A] | 0.614 | > 100 µM
23 | CC(C)(C)NC(=O)[C@@H]1C[C@@H]2CCCC[C@@H]2CN1C[C@@H](O)[C@H](Cc1ccccc1)NC(=O)[C@H](CC(N)=O)NC(=O)c1ccc2ccccc2n1.CS(=O)(=O)O [Saquinavir] | 0.87 | > 100 µM
24 | O=c1cc(-c2ccc(O)cc2)oc2cc(O)c(O)c(O)c12 [Scutellarein] | 0.815 | > 100 µM
25 | O=C(O)[C@H]1O[C@@H](Oc2cc3oc(-c4ccc(O)cc4)cc(=O)c3c(O)c2O)[C@H](O)[C@@H](O)[C@@H]1O [Scutellarin] | 0.476 | > 100 µM
26 | O=C(O)c1cc(O)c2c(c1)[C@H]([C@H]1c3cc(C(=O)O)cc(O)c3C(=O)c3c(O[C@@H]4O[C@H](CO)[C@@H](O)[C@H](O)[C@H]4O)cccc31)c1cccc(O[C@@H]3O[C@H](CO)[C@@H](O)[C@H](O)[C@H]3O)c1C2=O [Sennoside A] | 0.422 | > 100 µM
27 | CC(C)OC(=O)[C@H](C)NP(=O)(OC[C@H]1O[C@@H](n2ccc(=O)[nH]c2=O)[C@](C)(F)[C@@H]1O)Oc1ccccc1 (some centres not stated) [Sofosbuvir] | 0.166 | > 100 µM
28 | O=C1C=CC[C@@H]2[C@H]3CCCN4CCC[C@@H](CN12)[C@@H]34 [Sophocarpine] | 0.164 | > 100 µM
29 | OC[C@H]1O[C@@H](O[C@H]2C(O)O[C@H](CO)[C@@H](O)[C@@H]2O)[C@H](O)[C@@H](O)[C@@H]1O (some centres not stated) [Sophorose] | 0.187 | > 100 µM
30 | Cc1cn([C@H]2C=C[C@@H](CO)O2)c(=O)[nH]c1=O [Stavudine] | 0.204 | > 100 µM
31 | COc1ncnc(NS(=O)(=O)c2ccc(N)cc2)c1OC [Sulfadoxin] | 0.201 | > 100 µM
32 | CCC[C@H](NC(=O)[C@@H]1[C@H]2CCC[C@H]2CN1C(=O)[C@@H](NC(=O)[C@@H](NC(=O)c1cnccn1)C1CCCCC1)C(C)(C)C)C(=O)C(=O)NC1CC1 [Telaprevir] | 0.402 | > 100 µM
33 | Cc1cn([C@@H]2C[C@@H](O)[C@H](CO)O2)c(=O)[nH]c1=O [Telbivudine] | 0.153 | > 100 µM
34 | COc1cnc(-n2cnc(C)n2)c2[nH]cc(C(=O)C(=O)N3CCN(C(=O)c4ccccc4)CC3)c12 [Temsavir] | 0.146 | > 100 µM
35 | CC(C)OC(=O)OCOP(=O)(CO[C@H](C)Cn1cnc2c(N)ncnc21)OCOC(=O)OC(C)C.O=C(O)/C=C/C(=O)O [Tenofovir Disoproxil] | 0.212 | > 100 µM
36 | C[C@H](Cn1cnc2c(N)ncnc21)OCP(=O)(O)O [Tenofovir] | 0.229 | > 100 µM
